Measurements taken from patent US9877980B2, “Method and composition for treatment or prevention of type 2 diabetes and hyperlipidemia” (Chun-Ching Shih, priority 2016, dated 2018).
Marks after values point to notes of the source that are not given here.

Experiments:
Type in all cases: in vivo
[1] = test system: C57BL/6J mice on high-fat diet (HFD); experiment: Absolute tissue weight, body weight, weight gain and food intake in HFD mice; settings: 4 weeks
Protocol: (§1) The following experiment was performed and approved by the guidelines of the Institutional Animal Care and Use Committee of Central Taiwan University of Science and Technology. The 4-week old male C57BL/6J mice (total amount n=63) were purchased from the National Laboratory Animal Breeding and Research Center (Taipei, Taiwan). After acclimatization for one week, all of the mice were divided randomly into the control (CON) group and the high-fat diet (HFD) group. For the following 12 weeks, the CON group (n=9) was kept on a low-fat diet (Diet 12450B, Research Diets, Inc., New Brunswick, N.J., USA), while the HFD group (n=54) was exposed to a high-fat diet (Diet 12451, Research Diets, New Brunswick, N.J., USA). The low-fat diet was composed of protein 20%, carbohydrate 70% and fat 10%, whereas the high-fat diet was composed of protein 20%, carbohydrate 35%, and fat 45% (of total energy, % kcal). After HFD exposure for 8 weeks, the HFD group was further randomly subdivided into 6 groups (n=9 per group) to receive different treatments by oral gavage once daily for four weeks and on HFD. […] The HF+B1, HF+B2, and […] are collectively termed BB-treated HFD groups in the following examples. The CON mice were administered vehicle. After dosing for 4 weeks, the mice were given no food at night and sacrificed after 12 h of fasting on the next day. All of the individual tissues were collected and weighed, and portions were instantly frozen using liquid nitrogen and kept at −80° C. for subsequent target gene analysis. Blood samples (0.8 mL) were collected for analysis of blood parameters.
Body weight of each mouse was monitored and measured daily at the same time throughout the experimentation. The difference in body weight between two consecutive days is defined as body weight gain. The food pellets for mice were weighed and put into the food container. Unconsumed pellets of high-fat diet were discarded each day and fresh pellets of high-fat diet were provided to ensure food quality throughout the experimentation. The high-fat food pellets were stored at 4° C.

[2] = test system: epididymal adipocyte of HFD mice; experiment: Histology of epididymal white adipose tissue (adipocyte hypertrophy); settings: 4 weeks, three measurements
Protocol: as §1
Small pieces of epididymal white adipose tissue and liver tissue were fixed with formalin (200 g/kg) neutral buffered solution and embedded in paraffin. Sections of 8 μm […] were cut and stained with hematoxylin and eosin. For microscopic examination, a microscope (Leica, DM2500) was used, and the images were taken using a Leica Digital Camera (DFC-425-C).
Adipocyte hypertrophy, the pathological enlargement of adipocytes, is often found in subjects with type 2 diabetes and hyperlipidemia. To verify the therapeutic effect of the compound of formula I on adipocyte hypertrophy, morphology of the EWAT for the CON group and the BB-treated HFD groups was examined. Micrographs of the EWAT sections for each group were analyzed to determine the mean area of an epididymal adipocyte using the software ImageJ.

GPAT = experiment: Semi-quantitative RT-PCR of liver mRNA: GPAT; settings: HFD mice, 4 weeks, vs HF group
Protocol: as §1, with “For the following 12 weeks, the CON group (n=9) was kept on a low-fat diet (Diet 12450B, Research Diets, Inc., New Brunswick, N.J., USA), while the HFD group (n=54) was exposed to a high-fat diet (Diet 12451, Research Diets, New Brunswick, N.J., USA). The low-fat diet was composed of protein 20%, carbohydrate 70% and fat 10%, whereas the high-fat diet was composed of protein 20%, carbohydrate 35%, and fat 45% (of total energy, % kcal).” left out
Total RNA from liver tissue of mice was isolated with a Trizol Reagent (Molecular Research Center, Inc., Cincinnati, Ohio, USA) according to the manufacturer's instructions. The integrity of the extracted total RNA was examined by 2% agarose gel electrophoresis, and the RNA concentration was determined by the ultraviolet (UV) light absorbency at 260 nm and 280 nm (Spectrophotometer U-2800A, Hitachi). The quality of the RNA was confirmed by ethidium bromide staining of 18S and 28S ribosomal RNA after electrophoresis on 2% agarose gel containing 6% formaldehyde.
Levels of mRNA of genes of interest were quantified by semi-quantitative reverse transcription polymerase chain reaction (RT-PCR). […] PCR products were analyzed by 2% agarose gels and stained with ethidium bromide.

## OCC1O[C@@H](O[C@@H]2Cc3c(O)cc(O)cc3O[C@@H]2c2ccc(O)c(O)c2)C(O)C(O)[C@@H]1O (single isomer, unassigned; (-)) [compound of formula I, (−)-epicatechin-3-O-β-D-allopyranoside]
[1]; 10 mg/kg/day oral gavage
  Absolute tissue weight BAT: 0.168 ± 0.011 g
  Absolute tissue weight EWAT: 0.906 ± 0.105^d g
  Absolute tissue weight Liver: 0.899 ± 0.036 g
  Absolute tissue weight MWAT: 0.293 ± 0.018 g
  Absolute tissue weight RWAT: 0.280 ± 0.043^d g
  Absolute tissue weight Skeletal muscle: 0.873 ± 0.060 g
  Absolute tissue weight Visceral fat: 1.273 ± 0.147^d g
  Body weight: 27.85 ± 1.04 g
  Food intake: 2.08 ± 0.05 g/day/mouse
  Weight gain: 0.40 ± 0.28 g
[1]; 20 mg/kg/day oral gavage
  Absolute tissue weight BAT: 0.156 ± 0.017 g
  Absolute tissue weight EWAT: 0.902 ± 0.084^d g
  Absolute tissue weight Liver: 0.866 ± 0.036 g
  Absolute tissue weight MWAT: 0.267 ± 0.021 g
  Absolute tissue weight RWAT: 0.263 ± 0.034^f g
  Absolute tissue weight Skeletal muscle: 0.813 ± 0.077 g
  Absolute tissue weight Visceral fat: 1.199 ± 0.104^e g
  Body weight: 27.88 ± 1.14 g
  Food intake: 2.03 ± 0.03 g/day/mouse
  Weight gain: 0.61 ± 0.43 g
[1]; 40 mg/kg/day oral gavage
  Absolute tissue weight BAT: 0.144 ± 0.010 g
  Absolute tissue weight EWAT: 0.936 ± 0.075^d g
  Absolute tissue weight Liver: 0.848 ± 0.028 g
  Absolute tissue weight MWAT: 0.236 ± 0.030 g
  Absolute tissue weight RWAT: 0.233 ± 0.026^f g
  Absolute tissue weight Skeletal muscle: 1.156 ± 0.102^d g
  Absolute tissue weight Visceral fat: 1.198 ± 0.075^e g
  Body weight: 27.15 ± 0.84 g
  Food intake: 2.02 ± 0.03 g/day/mouse
  Weight gain: −0.05 ± 0.11^d g
[2]; 10 mg/kg/day oral gavage
  mean area of an epididymal adipocyte: 6882.8±102.2 μm^2
[2]; 20 mg/kg/day oral gavage
  mean area of an epididymal adipocyte: 6475.5±102.6 μm^2
[2]; 40 mg/kg/day oral gavage
  mean area of an epididymal adipocyte: 6192.7±100.7 μm^2
GPAT; 10 mg/kg/day oral gavage
  liver mRNA level of GPAT: significantly reduced
GPAT; 20 mg/kg/day oral gavage
  liver mRNA level of GPAT: significantly reduced
GPAT; 40 mg/kg/day oral gavage
  liver mRNA level of GPAT: significantly reduced
